Molecules are shown by their SMILES.

The data set in a line: Solubility in organic solvent (toluene). In kind it is physicochemical.

For the molecule `C=CC[Si](C#Cc1c2cc3ccccc3cc2c(C#C[Si](CC=C)(C(C)C)C(C)C)c2cc3ccccc3cc12)(C(C)C)C(C)C` [Compound I, 6,13-bis(allyldiisopropylsilylethynyl)pentacene], the solubility in toluene result is “greater than 21 wt %”.

The values above are taken from patent publication US8956555B2, “Silylethynyl pentacene compounds and compositions and methods of making and using the same” (3M Innovative Properties Company, priority 2008, dated 2015).
